We go through 12 molecules from ChEMBL document CHEMBL6134833, “Recent advances in CDC7 kinase inhibitors: Novel strategies for the treatment of cancers and neurodegenerative diseases” (Eur J Med Chem, 2025).

The term IC50 denotes the concentration needed to halve the response being measured.

Data set [1] addresses Cyclin-dependent kinase 2/cyclin A (Homo sapiens, UniProt P24941). Nature of the data set: Inhibition of CDK2/Cyclin A (unknown origin). The class given is protein-complex assay.
The target of the next data set is Casein kinase 2 (Homo sapiens, UniProt P67870+P68400+P19784+Q8NEV1). Kind of data set: Inhibition of CK2 (unknown origin). The class given is protein assay.
The nature of data set [2]: Metabolic stability in rat liver microsome assessed as microsomal clearance. The class given is ADME. As to conditions: microsomes. (Microsomes from liver hold many membrane-bound enzymes, among them those of drug oxidation.)
A short description of data set [3]: Metabolic stability in human liver microsome assessed as microsomal clearance. It is filed as ADME. As to conditions: microsomes.
For a further data set, the target named is CDK3/Cyclin E (Homo sapiens, UniProt Q00526). Kind of data set: Inhibition of CDK3/cyclin E1 (unknown origin) by ADP-Glo kinase assay. The class given is protein-complex assay.
A short description of data set [4]: Inhibition of MCM2 (unknown origin). Further details: species or system Homo sapiens.
Data set [5] concerns the target T1, Cell division cycle 7-related protein kinase (Homo sapiens, UniProt O00311). Kind of data set: Inhibition of CDC7 (unknown origin).
The target of data set [6] is T1, Cell division cycle 7-related protein kinase. Nature of the data set: Inhibition of GST full length human CDC7 (1 to 574 residues) expressed in baculovirus expression system.

The structures appear in SMILES notation.

T1 sequence (O00311 whole entry, the tested form may be a part): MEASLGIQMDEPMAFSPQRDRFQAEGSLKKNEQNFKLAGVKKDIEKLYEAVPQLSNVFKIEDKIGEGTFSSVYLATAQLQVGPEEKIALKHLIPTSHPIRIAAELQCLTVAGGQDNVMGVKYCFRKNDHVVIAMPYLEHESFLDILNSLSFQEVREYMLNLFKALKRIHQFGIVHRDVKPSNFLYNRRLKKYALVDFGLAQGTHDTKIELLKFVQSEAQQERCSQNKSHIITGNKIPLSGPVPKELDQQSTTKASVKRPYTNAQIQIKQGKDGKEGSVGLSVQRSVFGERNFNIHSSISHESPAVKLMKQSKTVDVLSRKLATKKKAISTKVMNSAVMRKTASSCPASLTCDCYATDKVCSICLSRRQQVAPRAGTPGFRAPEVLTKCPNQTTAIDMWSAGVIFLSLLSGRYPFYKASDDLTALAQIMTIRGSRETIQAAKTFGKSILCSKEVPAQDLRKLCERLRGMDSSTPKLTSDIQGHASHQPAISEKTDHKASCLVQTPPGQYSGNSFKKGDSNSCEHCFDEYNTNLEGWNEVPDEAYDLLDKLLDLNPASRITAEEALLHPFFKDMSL
Sequence of CDK3/Cyclin E (P24864 whole entry): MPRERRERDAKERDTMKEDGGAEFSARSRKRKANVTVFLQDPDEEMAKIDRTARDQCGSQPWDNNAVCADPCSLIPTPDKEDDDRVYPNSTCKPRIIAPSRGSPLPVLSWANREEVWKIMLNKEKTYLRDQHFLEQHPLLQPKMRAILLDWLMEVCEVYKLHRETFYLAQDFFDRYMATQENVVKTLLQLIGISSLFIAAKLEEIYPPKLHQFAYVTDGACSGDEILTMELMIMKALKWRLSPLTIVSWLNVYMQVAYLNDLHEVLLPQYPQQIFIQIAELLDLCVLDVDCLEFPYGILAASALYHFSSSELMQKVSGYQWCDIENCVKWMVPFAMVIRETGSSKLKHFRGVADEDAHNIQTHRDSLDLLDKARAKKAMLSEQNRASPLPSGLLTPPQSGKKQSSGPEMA
Sequence of CDK3/Cyclin E (Q00526 whole entry): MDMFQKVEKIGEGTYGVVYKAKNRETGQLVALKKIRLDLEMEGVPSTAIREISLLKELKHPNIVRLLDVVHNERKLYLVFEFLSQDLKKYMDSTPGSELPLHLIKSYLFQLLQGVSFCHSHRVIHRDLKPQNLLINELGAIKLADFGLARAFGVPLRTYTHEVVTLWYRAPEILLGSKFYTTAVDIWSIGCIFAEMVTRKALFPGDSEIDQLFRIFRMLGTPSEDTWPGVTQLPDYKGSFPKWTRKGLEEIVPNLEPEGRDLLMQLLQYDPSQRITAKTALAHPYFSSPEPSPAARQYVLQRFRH

In data set [1], `NC(=O)c1cc(-c2ccncc2)[nH]c1-c1ccccc1` gave an IC50 of 1.1 µM. At Casein kinase 2, `O=c1[nH]cnc2c1oc1ccc(Br)cc12` returned an IC50 of 1.5 µM. This counts as single-digit micromolar. Regarding `O=c1[nH]c([C@@H]2CCCN2)nc2c1oc1ccc(Cl)cc12`, the IC50 against Casein kinase 2 was determined as 0.215 µM. As to `Nc1nccc(-n2cc(-c3cccnc3Cl)c3cnc(Cl)cc32)n1`, the CLH in data set [2] was 102 µL/min/µg; in data set [3], 30 µL/min/µg. On to `Nc1nccc(-n2cc(-c3cccnc3Cl)c3cnccc32)n1`, for which the CLH in data set [2] is 72 µL/min/µg; in data set [3], 21 µL/min/µg. With `Nc1nccc(-n2ccc3ncccc32)n1`, the CLH is 50 µL/min/µg in data set [2] and 60 µL/min/µg in data set [3]. Turning to `Nc1nccc(-n2ccc3cnccc32)n1`, the CLH in data set [2] was 101 µL/min/µg; in data set [3], 62 µL/min/µg.

For the molecule `Cc1n[nH]cc1-c1cc2nc([C@@H]3CCCCN3)[nH]c(=O)c2s1`, the IC50 at CDK3/Cyclin E stood at 6.5 µM; in data set [4] it was 0.036 µM. As to `N[C@H](c1nc2cc(-c3ccncc3F)sc2c(=O)[nH]1)C1CC1`, the IC50 in data set [5] is less than 1 µM. With `Cn1nccc1-c1nc(C2CCOCC2)c(Cl)c(=O)[nH]1`, in data set [6], the IC50 was 0.0912 µM. Regarding `O=c1[nH]c([C@@H]2CC3CCN2CC3)nc2c3c(sc12)-c1c[nH]nc1CCC3`, the IC50 in data set [5] came out at 3.02 µM. In other words, the single-digit micromolar range.

Take `Cc1[nH]c(=O)c2sc(-c3cn[nH]c3)c3c2c1CCCO3`: the IC50 in data set [5] was less than 1 µM.
